As a reminder, the IC50 is the point on the concentration scale where inhibition reaches its midpoint.

In assay [1] the target is T1, (Homo sapiens, UniProt P08069).
T1 construct: human IGF1R kinase domain residues M954-C1367; made in house; host or cells: baculovirus expression (insect cells)
In words: IGF1R kinase assay (LCCA), IGF 0P. The format is biochemical. Conditions: IGF1R kinase LCCA assay. Put shortly: (§1)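 Baculovirus-expressed human IGF1R kinase domain (M954-C1367), 4 nM, with 3 μM ATP and 4 μM poly EY in Tris-HCl pH 7.5 buffer containing MgCl2 and MnCl2, 2 h at ambient temperature. Remaining ATP read by luciferase chemiluminescence; IC50 from 10-point dose-response fitted to a four-parameter equation.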

In the next assay the target is T2, IGF 3P (Homo sapiens, UniProt P08069).
T2 construct: human IGF1R kinase domain residues M954-C1367; made in house; host or cells: baculovirus expression (insect cells)
The experiment in a line: IGF1R kinase assay (LCCA), IGF 3P. The format is biochemical. Conditions: IGF1R kinase LCCA assay. The essentials:
as §1

T1 sequence (P08069 954-1367): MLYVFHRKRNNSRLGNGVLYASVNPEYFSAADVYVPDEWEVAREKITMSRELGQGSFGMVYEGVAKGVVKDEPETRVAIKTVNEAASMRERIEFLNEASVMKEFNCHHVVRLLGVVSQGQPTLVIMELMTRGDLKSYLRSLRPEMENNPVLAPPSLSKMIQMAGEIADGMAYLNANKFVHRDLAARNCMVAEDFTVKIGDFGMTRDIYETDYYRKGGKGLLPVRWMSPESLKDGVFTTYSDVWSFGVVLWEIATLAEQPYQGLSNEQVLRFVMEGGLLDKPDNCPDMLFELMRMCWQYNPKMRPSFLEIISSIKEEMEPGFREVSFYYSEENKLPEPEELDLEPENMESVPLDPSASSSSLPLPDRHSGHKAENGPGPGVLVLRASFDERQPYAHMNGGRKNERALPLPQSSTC
T2 sequence (P08069 954-1367): as above

Regarding `O=[N+]([O-])c1cnc(Nc2ccc(Cl)cc2Cl)nc1Nc1cc(C2CC2)n[nH]1` [Example 331], the IC50 (in assay [1]; at IGF 3P) was over 5 µM in each case.

For the molecule `NC(=O)c1c[nH]nc1Nc1nc(Nc2ccccc2Cl)ncc1Br` [Example 332], the IC50 (in assay [1]; against IGF 3P) was over 5 µM in each case.

Turning to `Brc1cnc(NC(Cc2ccccc2)c2ccccc2)nc1Nc1cc(C2CC2)[nH]n1` (centres unmarked) [Example 333], the IC50 (in assay [1]; on IGF 3P) was over 5 µM in each case.

With `Brc1cnc(Nc2ccccc2N2CCCCC2)nc1Nc1cc(C2CC2)[nH]n1` [Example 334], the half-inhibitory concentration (IC50) (in assay [1]; against IGF 3P) was over 5 µM in each case.

Consider `O=C(c1ccccc1)c1ccccc1Nc1ncc(Br)c(Nc2cc(C3CC3)n[nH]2)n1` [Example 335], for which the IC50 (in assay [1]; on IGF 3P) was over 5 µM each time.

For `Nc1ncnc2c1c(-c1ccc(NC(=O)C3(C(=O)Nc4ccc(F)cc4)CC3)cc1)cn2C1CC(CN2CCCC2)C1` (centres unmarked) [Example 343], the IC50 (in assay [1]; on IGF 3P) was 0.5 to 5 µM throughout.

`NCCCCn1cc(-c2cccc(OCc3ccccc3)c2)c2c(N)ncnc21` [Example 344]: the results for the IC50 (in assay [1]; at IGF 3P) were over 5 µM and 0.5 to 5 µM, respectively.

Turning to `CC(=O)NCC=CCn1cc(-c2cccc(OCc3ccccc3)c2)c2c(N)ncnc21` [Example 345], the IC50 is over 5 µM in assay [1] (IGF 0P) and 0.5 to 5 µM on IGF 3P (IGF 3P).

Take `CC(=O)NCC1CC(n2cc(-c3cccc(OCc4ccccc4)c3)c3c(NC(C)=O)ncnc32)C1` (centres unmarked) [Example 346]: the IC50 in assay [1] was over 5 µM; at IGF 3P it was 0.5 to 5 µM.

Regarding `Nc1ncnc2c1c(-c1ccc(NC(=O)C3(C(=O)Nc4ccc(F)cc4)CC3)cc1)cn2CC1CC2CNCC2C1` (centres unmarked) [Example 347], the IC50 (in assay [1]; on IGF 3P) was over 5 µM each time.

Regarding `Nc1ncnc2c1c(-c1cccc(OCc3ccccc3)c1)cn2C1CNC1` [Example 348], the IC50 was over 5 µM in assay [1] and 0.5 to 5 µM at IGF 3P.

As for `CC(=O)N1CCC(n2cc(-c3cccc(OCc4ccccc4)c3)c3c(N)ncnc32)CC1` [Example 349], the IC50 (in assay [1]; on IGF 3P) was over 5 µM in each case.

For the molecule `Nc1ncnc2c1c(-c1cccc(OCc3ccccc3)c1)cn2C1CCCCC1` [Example 350], the IC50 in assay [1] is over 5 µM; on IGF 3P it was 0.5 to 5 µM.

Turning to `Nc1ncnc2c1c(-c1cccc(Oc3ccccc3)c1)cn2C1CCCC1` [Example 354], the IC50 (in assay [1]; against IGF 3P) was over 5 µM each time.

Take `CC(=O)NCC#CCn1cc(-c2cccc(OCc3ccccc3)c2)c2c(N)ncnc21` [Example 355]: the IC50 (in assay [1]; at IGF 3P) was over 5 µM in each case.

`Nc1ncnc2c1c(-c1cccc(OCc3ccccc3)c1)cn2CC1CC2CN(C(=O)OCc3ccccc3)CC2C1` (centres unmarked) [Example 356]: the IC50 (in assay [1]; on IGF 3P) was over 5 µM throughout.

Turning to `Nc1ncnc2c1c(-c1ccc(NC(=O)C3(C(=O)Nc4ccc(F)cc4)CC3)cc1)cn2CC1CC2CN(C(=O)OCc3ccccc3)CC2C1` (centres unmarked) [Example 357], the IC50 (in assay [1]; against IGF 3P) was over 5 µM in each case.

Regarding `Nc1ncnc2c1c(-c1cccc(OCc3ccccc3)c1)cn2CC1CC2CNCC2C1` (centres unmarked) [Example 358], the IC50 (in assay [1]; at IGF 3P) was over 5 µM in each case.

On to `CCN(CC)CCCNc1cc(Nc2cc(C(C)C)[nH]n2)nc(NCc2cc(-c3ccccc3)no2)n1` [Example 495], for which the IC50 in assay [1] was 0.05 to 0.5 µM; on IGF 3P it was under 0.05 µM.

As to `CC(C)c1cc(Nc2cc(N3CCOCC3)nc(NCc3cc(-c4ccccc4)no3)n2)n[nH]1` [Example 496], the IC50 in assay [1] is 0.05 to 0.5 µM; against IGF 3P it was under 0.05 µM.

In the case of `CC(C)c1cc(Nc2cc(N3CCN(C)CC3)nc(NCc3cc(-c4ccccc4)no3)n2)n[nH]1` [Example 497], the IC50 in assay [1] was 0.05 to 0.5 µM; against IGF 3P it was under 0.05 µM.

Turning to `Cc1cc(Nc2cc(C3CC3)[nH]n2)nc(NCc2cc(-c3ccccn3)no2)n1` [Example 498], the IC50 (in assay [1]; against IGF 3P) was 0.05 to 0.5 µM throughout.

The values are drawn from US8211929B2, “Pyrimidine derivatives as kinase modulators and method of use” (Exelixis, Inc., priority 2004, dated 2012).
